Reference: patent publication US20190161418A1, “OIL-SOLUBLE PLANT MICRONUTRIENTS” (Huntsman Petrochemical LLC, priority 2016, published 2019)

System: corn seedlings
Experiment: Zinc uptake measurements in corn seedlings (foliar spray, ICP-MS)
Assay type: in vivo
Conditions: corn seedling aerial tissue 48 hours after spray; normalized to water control (set as 1); average of two trials; ZnSO4 1 lb Zn/acre, Zn-LAS/MSO and Zn-EDTA 0.15 lb Zn/acre, Ca-LAS/MSO 1.07 g/L
Protocol: In this example, the Zn salt of linear alkylbenzene sulfonate from example 1 was sprayed on corn seedlings that were grown in potting soil and zinc uptake into the plant leaves was measured and compared to uptake of other forms of zinc as described below. The samples that were analyzed were prepared by spraying the leaves with the particular formulation, drying the leaves after spraying, grinding the leaves, digesting them in aqua regia and measuring the concentration of zinc in solution by inductively coupled plasma mass spectrometry (ICP-MS). Spray treatment formulations were prepared as follows, based on an average delivery of 3.3 mL solution per 4 inch square pot (16 in^2 treated area): • a) deionized water only • b) Ca-LAS/MSO: 1.07 g/L in deionized water • c) ZnSO4: 1.02 g/L ZnSO4 in deionized water to approximate the recommended use rate of 1 lb Zn in 20 gallons solution per acre • d) Zn-LAS/MSO (5% w/w Zn, density 1.02 g/mL): 1.07 g/L in deionized water to approximate a use rate of 0.15 lb Zn in 20 gallons solution per acre • e) Zn-EDTA (9% w/w Zn, density 1.31 g/mL): 0.59 g/L in deionized water to approximate the recommended use rate of 0.15 lb Zn in 20 gallons solution per acre.
After 48 hours of incubation, each seedling was cut just above the soil line and the aerial tissue was used for analysis. […]

`O=S(=O)([O-])[O-].[Zn+2]` [ZnSO4] was tested, and the “Relative Zinc Concentration” value was 2.01.
